The results in this text go back to patent US20050124647A1, “Tricyclic derivatives of indole with antiangiogenic activity” (Sigma-Tau Industrie Farmaceutiche Riunite S.p.A., priority 2000, published 2005).

The subject of one data set is MCF-7/DX. The data set can be described thus: Antiproliferative activity vs resistant cell MCF-7/DX. In kind it is cell-based. To be noted: Homo sapiens, MCF7/DX; resistant cell (doxorubicin-resistant, P-glycoprotein overexpressing); read-out: IC50 +/− SD, MCF-7/DX. The procedure:
(§1) The test used was the sulforodamine B test used for screening anticancer products at the National Cancer Institute (Skehan, 1990). The molecules at scalar concentrations over a range from 500 μM to 0.97 μM, were incubated in parallel with different human cell lines for 24 hours. After removing the products, cell survival was investigated after another 48 hours with the NCI test. The antiproliferative capacity of the compounds was quantified in terms of IC50±SD (concentration of the molecule that inhibits 50% of cell survival) processed using a curve fitting program (De Lean et al., 1978).
(§2) The cytotoxicity of the molecules on tumour lines resistant to chemosensitising activity was assessed on various tumour cell lines overexpressing P-glycoprotein and resistant to doxorubicin (100-fold) and cross-resistant to daunorubicin, actinomycin D, mitoxantrone, vincristine, vinblastine, taxol, colchicine, and etoposide. The cytotoxicity of the products was assessed using the same test adopted for the sensitive tumour cells.

The subject of the next data set is LoVo/DX. The data set can be described thus: Antiproliferative activity vs resistant cell LoVo/DX. The format is cell-based. To be noted: Homo sapiens, resistant cell (doxorubicin-resistant, P-glycoprotein overexpressing), read-out: IC50 +/− SD, LoVo/DX. The procedure:
as §1, §2

Data set [1] has as its system BMEC. The experiment in a line: Cytotoxicity on endothelial cells (BMEC). The format is cell-based, bovine.
Data set [2] deals with BMEC. The experiment in a line: Chemotactic assay with the Boyden chamber on BMEC. In kind it is cell-based, bovine. Here is the method:
For the antiangiogenic activity the chemotactic assay with the Boyden chamber was performed (Werner F., Goodwin R. H. and Leonard E. J., Journal of Immunological Methods 1980; 33, 239-247), using both bovine aortal endothelial cell (BAEC) cultures and bovine medullary endothelial cell (BMEC) cultures. The assays were performed at IC0 (maximum non-cytotoxic concentration) and the results expressed as % inhibition of migration across a porous filter in response to a chemotactic stimulus (1% bovine serum in DMEM culture medium). This finding was obtained by direct cell count under the optical microscope, and the percentage migration inhibition was calculated according to the formula (T−C/C)×100, where T=mean number of cells migrating in the sample and C=mean number of cells migrating in the control. The control consisted of cells which migrated towards the serum, not treated with the study molecules, and included in every chemotaxis experiment. The data refer to the readings of 5 microscopic fields/well in 4 independent chemotaxis wells per sample.

Like-named read-outs stand apart in the source and are kept apart here.

Take `CC1(C)OCC(C2c3c([nH]c4ccccc34)C(c3c[nH]c4ccccc34)C3OC(C)(C)OC32)O1` (racemic) [ST1372, 1-(indol-3-yl)-2,3-O-isopropylidene-4-(2,3-O-isopropylidene-ethyl)-tetra-hydrocarbazole]: the results for the IC50 in the data set with MCF-7/DX and in the data set on LoVo/DX were 26.9 µM and 26.3 µM, respectively.
Consider `c1ccc2c(C3CCCCc4c3[nH]c3ccccc43)c[nH]c2c1` (racemic) [ST1381, 1-(indol-3-yl)-indo[2,3a]-cycloheptan.], for which the results for the IC50 with MCF-7/DX and in the data set on LoVo/DX were 28.4 µM and 25.2 µM, respectively. The “IC0 (maximum non-cytotoxic concentration)” value in the data set with BMEC [1] is 30 µM. In addition, the entries for the “activity on chemotaxis of endothelial cells (in words)” value in the data set with BMEC [2] and with BMEC [2] (listed as ST 1381) were “active” and “better anti-chemiotactic compound”, respectively.
For the compound `c1ccc2c(C3CCCCc4[nH]c5ccccc5c43)c[nH]c2c1` (racemic) [ST1621, 5-(indol-3-yl)-indo(2,3a]-cycloheptan.], the values for the IC50 in the data set with MCF-7/DX and in the data set with LoVo/DX were 68.3 µM and 23.8 µM, respectively. The “IC0 (maximum non-cytotoxic concentration)” value with BMEC [1] is 0.1 µM.
In the case of `c1ccc2c(C3CCCc4[nH]c5ccccc5c43)c[nH]c2c1` (racemic) [ST1729, 4-(1H-indol-3-yl)-tetrahydro-1H-carbazole], the “IC0 (maximum non-cytotoxic concentration)” value in the data set with BMEC [1] was 25 µM.
Take `c1[nH]c2cc3c(cc2c1C1CCCCc2c1[nH]c1cc4c(cc21)OCO4)OCO3` (racemic) [ST1749, 1-(5″,6″-methylendioxy-indol-3-yl)-5′,6′-methylendioxy-indo[2,3-a]-cycloeptane]: the “IC0 (maximum non-cytotoxic concentration)” value in the data set with BMEC [1] was 100 µM.
Take `c1[nH]c2cc3c(cc2c1C1CCCc2c1[nH]c1cc4c(cc21)OCO4)OCO3` (racemic) [ST1751, 1-(5′,6′-methylendioxy-1H-indol-3-yl)-6,7-methylendioxy-tetrahydro-1H-carbazole]: the IC50 with MCF-7/DX was 58.6 µM.
As to `c1ccc(COc2ccc3[nH]cc(C4CCCCc5c4[nH]c4ccc(OCc6ccccc6)cc54)c3c2)cc1` (racemic) [ST1765, 1-(5″-benzyloxy-indol-3-yl)-5′-benzyloxy-indo[2,3a]-cycloheptan], the IC50 with MCF-7/DX was found to be 24.8 µM; in the data set on LoVo/DX, 17 µM.
As to `c1ccc(COc2ccc3[nH]cc(C4CCCCc5[nH]c6ccc(OCc7ccccc7)cc6c54)c3c2)cc1` (racemic) [ST1778, 5-(5″-benzyloxy-indol-3-yl)-5′-benzyloxy-indo[2,3a]-cycloheptan.], the IC50 in the data set with MCF-7/DX came to 71 µM; in the data set with LoVo/DX it was 65.1 µM. Also, in the data set on BMEC [1], the “IC0 (maximum non-cytotoxic concentration)” value was 25 µM.
As for `Oc1ccc2[nH]cc(C3CCCCc4c3[nH]c3ccc(O)cc43)c2c1` (racemic) [ST1783, 1-(5″-hydroxy-1H-indol-3-yl)-5′-hydroxy-indo[2,3a]-cycloheptan], the IC50 in the data set on MCF-7/DX amounted to 39 µM. Further, the “IC0 (maximum non-cytotoxic concentration)” value in the data set with BMEC [1] came to 10 µM.
